From BindingDB's records for doi:10.1016/j.ejmech.2015.04.052 (University of Barcelona, 2015)

Experiments:
[1] = Displacement of [3H]-R-PIA from adenosine A1 receptor (unknown origin) expressed in sheep striatum membranes after 2 hrs by scintillation counting analysis
[2] = Displacement of [3H]-YM09151-2 from dopamine D2 receptor (unknown origin) expressed in sheep striatum membranes assessed as high affinity constant after 2 hrs by scintillation counting analysis
[3] = Displacement of [3H]-YM09151-2 from dopamine D2 receptor (unknown origin) expressed in sheep striatum membranes assessed as low affinity constant after 2 hrs by scintillation counting analysis
[4] = Displacement of [3H]-SCH23390 from dopamine D1 receptor (unknown origin) expressed in sheep striatum membranes after […] by scintillation counting analysis

| SMILES | Kd [1] | Kd [2] | Kd [3] | Kd [4] |
| --- | --- | --- | --- | --- |
| CCCC[C@H](NC(=O)[C@H]1CC[C@@H]2c3[nH]c4ccccc4c3CCN2C1)C(=O)N[C@@H](Cc1ccc(F)c(F)c1)C(=O)N[C@@H](CCCCN)C(N)=O | > 100000 nM | 190 nM | 8000 nM | 1300 nM |
| CCCC[C@H](NC(=O)[C@H]1CC[C@@H]2c3[nH]c4ccccc4c3CCN2C1)C(=O)N[C@@H](Cc1ccc(O)cc1)C(=O)N[C@@H](CCCCN)C(N)=O | > 100000 nM | 4700 nM |  | 1200 nM |
